Data reported in patent US11312680B2, “Method for treating a patient having a colon cancer” (King Abdulaziz University, priority 2019, dated 2022).

Columns and labels:
[1] = test system: MCF7 breast cancer cells; test: MTT viability assay against MCF7 cells; assay type: cell-based, human
Description: (§1) The KAC compounds were evaluated for antiproliferative effect against HCT-116 and MCF7 cell lines using the MTT viability assay and to calculate the relative IC50 values for each compound. Cells were seeded in triplicate in 96-well plates at a density of 10×10^3 cells/mL in a total volume of 100 μL per well and allowed to adhere overnight. Cells were treated with various concentrations of tested KAC compounds or 0.1% of DMSO (vehicle) for 27 h. Then the medium was discarded and 100 μL per well of MTT (5 mg/mL in PBS) containing medium was added. After incubation at 37° C. for 3 h, the MTT-containing medium was replaced by DMSO (100 μL per well) to dissolve the formazon crystal and incubated for 10 min. Absorbance of the solution was measured by microplate reader at […]. The IC50 values were calculated according to the dose-dependent curves using GraphPad prism, version 5.0. All the experiments were repeated in at least three independent experiments.

[2] = test system: N87 stomach cancer cells; test: MTT cytotoxicity assay against N87 cells; assay type: cell-based, human
Description: Cytotoxicity of all the compounds against N87 cells was determined using MTT assay. Briefly, 25,000 cells suspended in 0.1 mL of cell culture media were added in each well of a 96-well plate. After allowing the cells to attach for 24 h, media was aspirated from all the wells, and different concentrations of anticancer compounds in cell culture media were added to the wells in triplicate. Six wells were incubated with drug free media, and used as control. 96 hours after the treatment, 25 μL of MTT solution (5 mg/mL in phosphate saline buffer, pH 7.4) was added to each well, and the plate was incubated for 4.5 hours at 37° C. in the incubator. After incubation, 100 μL of 10% SDS in 0.01 M hydrochloric acid was added to each well, and the plate was incubated overnight at 37° C. The next day absorbance was determined in each well at 590 nm using a plate reader. IC50 value of each compound was determined using GraphPad Prism.

[3] = test system: HCT116 colon cancer cells; test: MTT viability assay against HCT-116 cells; assay type: cell-based, human
Description: as §1

[4] = test system: HCT-116 cells; test: Cell cycle analysis of HCT-116 cells (propidium iodide flow cytometry); assay type: cell-based, human; details: for percentage of cells in G2/M phase: 24 h, control 9.0%; for cells in G2/M phase / apoptosis, population in the sub-G1 phase / apoptosis: 48 h; for apoptosis, population in the sub-G1 phase: control 0.9%; for cell cycle effect: HCT-116, 24 and 48 hours; for apoptosis: HCT-116, positive controls at 1 μM
Description: Flow cytometric analysis was used to determine DNA level in any given cell that has been stained with propidium iodide (PI). PI is a fluorescent DNA intercalating agent which binds stoichiometrically to nucleic acid. When bounded to DNA, its fluorescence intensity increases 20 fold (excitation 488 nm and emission 600 nm). As cells pass singly through a beam of light their cell cycle state is analyzed. The fluorescent intensity of DNA-bound PI correlates to the DNA content of the cell. This allows the cell population in G1 phase (diploid −2n), G2M phase (4n), or S phase (2n-4n) to be differentiated by plotting a histogram of the PI fluorescence versus cell counts (linear scale). G1 and G2M can be seen as distinct peaks, with the S phase shown as the population between these two peaks. Apoptotic cells are hypo-diploid (pre-G1) and have a low PI fluorescence due to DNA fragmentation [Riccardi, C.; Nicoletti, I., Analysis of apoptosis by propidium iodide staining and flow cytometry. Nature protocols 2006, 1 (3), 1458-1461].
To study cell cycle stage, adherent and detached cells were collected by trypsinization and centrifuged at 800×g for 15 min. Cells were washed twice with ice-cold PBS and fixed with slow addition of ice-cold 70% ethanol overnight at −20° C. Fixed cells were centrifuged at 800×g for 15 min and the pellet was re-suspended in 400 μL PBS and transferred to LP5 FACS tubes then stained with 50 μg/mL of PI, containing 50 μg/mL of DNase-free RNase A (to degraded any double strand RNA present), at 37° C. for 30 min. The DNA content of cells (10,000 cells/experimental group) was analyzed by flow cytometer at 488 nm using a FACSCalibur flow cytometer (BD Biosciences, San Jose, Calif.).
In general, G2/M cell cycle arrest is strongly associated with inhibition of tubulin polymerization. The effect of KX-01 analogue, KAC-3, was investigated with colon cancer HCT-116 cells by flow cytometry at two concentrations (5 μM and 10 μM) for 24 and 48 hours. […] The percentage of cells in G2/M phase after 24 h was 13.3% and 41.7% at concentrations of 5 μM and 10 μM, respectively compared to the control (9.0%) (see FIG. 9). […] The cell cycle analysis results for KAC-3 are typical for tubulin targeting agents, which characteristically cause G2/M blockade followed by apoptosis [Perez, E. A., Microtubule inhibitors: Differentiating tubulin-inhibiting agents based on mechanisms of action, clinical activity, and resistance. Molecular cancer therapeutics 2009, 8 (8), 2086-2095]. […] Cancer research and treatment: official journal of Korean Cancer Association 2017, 49 (3), 643-655; and Anbalagan, M.; Carrier, L.; Glodowski, S.; Hangauer, D.; Shan, B.; Rowan, B. G., KX-01, a novel Src kinase inhibitor directed toward the peptide substrate site, synergizes with tamoxifen in estrogen receptor a positive breast cancer. Breast cancer research and treatment 2012, 132 (2), 391-409]. […] Frontiers in pharmacology 2017, 8, 244].

[5] = test system: MDA-MB-231 and BT-549 and MDA-MB-468 cells; details: MDA-MB-231, BT-549, MDA-MB-468 cells; literature; cited from earlier work
[6] = test system: HL-60 leukemia cells; test: CellTiter-Blue cell viability assay against HL-60 cells; assay type: cell-based; details: Homo sapiens, HL-60, 48 h, leukemia cells HL60, CellTiter-Blue
Description: HL-60 cells were purchased from CLS Cell Line Service GmbH (Eppelheim, Germany) and cultured in Roswell Park Memorial Institute-1640 medium (RPMI-1640; Thermo Fisher Scientific, Inc; Waltham, Mass., USA) supplemented with 10% fetal bovine serum (FBS; Thermo Fisher Scientific) and ciprofloxacin (10 μg/ml; Cipla Limited; Mumbai, India), at 37° C. with 5% CO2 in a humidified incubator.
The CellTiter®-Blue Cell Viability assay was acquired from Promega Corporation (Madison, Wis., USA). Cell viability assay was performed as follows. The cells (10^4/well) were incubated with KAC-12 at a concentration gradient ranging from 0.01 to 100 μM, in 96-well plates for 48 h at 37° C. Subsequently, 20 μL of CellTiter®-Blue Cell Viability reagent was added to each well and incubated for an additional 2 h for the development of fluorescence. The fluorescence emission was measured at 590 nm using the SpectraMax® i3x Multi-Mode microplate reader (Molecular Devices, LLC; San Jose, Calif., USA.) and plotted against drug concentrations to determine the mean inhibitory concentration of KAC-12 producing 50% decrease in cell viability (IC50).

| IC50 ([1]; Homo sapiens, MCF7, 27 h) | IC50 ([3]; Homo sapiens, HCT-116, 27 h) | SMILES | IC50 ([2]; Homo sapiens, 96 h) | also measured |
| --- | --- | --- | --- | --- |
| 9.48 µM | – | O=C(Cc1ccc(NC(=O)c2ccccc2C(=O)N2CCCCC2)cc1)NCc1ccccc1 [KAC-02, N-(4-(2-(benzylamino)-2-oxoethyl)phenyl)-2-(piperidine-1-carbonyl)benzamide] | – | – |
| > 50 µM | – | CCN(CC)C(=O)c1ccccc1C(=O)Nc1ccc(CC(=O)NCc2ccccc2)cc1 [KAC-04, N^1-(4-(2-(benzylamino)-2-oxoethyl)phenyl)-N^2,N^2-diethylphthalamide] | > 50 µM | – |
| 29.3 µM | 18.8 µM | CC(=O)Nc1ccc(CC(=O)NCc2ccccc2)cc1 [KAC-01, 2-(4-acetamidophenyl)-N-benzylacetamide] | > 50 µM | IC50 ([3]; 27 h): 18.8 µM |
| > 50 µM | – | CCN(CC)C(=O)c1ccccc1-c1ccccc1C(=O)Nc1ccc(CC(=O)NCc2ccccc2)cc1 [KAC-07, N^2-(4-(2-(benzylamino)-2-oxoethyl)phenyl)-N^2′,N^2′-diethyl-[1,1′-biphenyl]-2,2′-dicarboxamide] | > 50 µM | – |
| 2.6 µM | 19.7 µM | O=C(Cc1ccc(NC(=O)c2ccccc2)cc1)NCc1ccccc1 [KAC-08, N-(4-(2-(benzylamino)-2-oxoethyl)phenyl)benzamide] | > 50 µM | IC50 N87 ([2]; 96 hours): much weaker; IC50 ([3]; 27 h): 19.7 µM; IC50 ([1]; 27 h): 2.63 µM |
| 3.5 µM | 4.8 µM | O=C(Cc1ccc(NC(=O)c2ccccc2C(=O)N2CCOCC2)cc1)NCc1ccccc1 [KAC-03, N-(4-(2-(benzylamino)-2-oxoethyl)phenyl)-2-(morpholine-4-carbonyl)benzamide] | 18.2 µM | IC50 ([3]; 27 h): 4.76 µM; percentage of cells in G2/M phase ([4]; HCT-116, 5 μM): 13.3%; cells in G2/M phase ([4]; HCT-116, 5 μM): 30.7%; apoptosis, population in the sub-G1 phase ([4]; HCT-116, 5 μM): 8.7%; percentage of cells in G2/M phase ([4]; HCT-116, 10 μM): 41.7%; cells in G2/M phase ([4]; HCT-116, 10 μM): 32.8%; apoptosis, population in the sub-G1 phase ([4]; HCT-116, 10 μM): 11.6%; cell cycle effect [4]: significant G2/M arrest in a time- and concentration-dependent manner |
| – | > 50 µM | COc1ccc(CNC(=O)Cc2ccc(NC(=O)c3cccc(Cl)c3)cc2)cc1 [KAC-15, 3-Chloro-N-(4-(2-((4-methoxybenzyl)amino)-2-oxoethyl)phenyl)benzamide] | – | – |
| 37 µM | > 50 µM | CCC(=O)Nc1ccc(CC(=O)NCc2ccccc2)cc1 [KAC-09, N-(4-(2-(benzylamino)-2-oxoethyl)phenyl)propionamide] | 7.2 µM | IC50 ([2]; 96 hours): 7.24 µM; IC50 ([1]; 27 h): 37 µM |
| – | 25.9 µM | O=C(Cc1ccc(NC(=O)c2cccc(Cl)c2)cc1)NCCc1ccccc1 [KAC-17, 3-Chloro-N-(4-(2-oxo-2-(phenethylamino)ethyl)phenyl)benzamide] | – | – |
| – | 23.9 µM | O=C(Cc1ccc(NC(=O)c2cccc(Cl)c2)cc1)NCc1ccco1 [KAC-18, 3-Chloro-N-(4-(2-((furan-2-ylmethyl)amino)-2-oxoethyl)phenyl)benzamide] | – | – |
| – | > 50 µM | O=C(Cc1ccc(NC(=O)c2cccc(Cl)c2)cc1)NCc1ccc(F)cc1 [KAC-16, 3-Chloro-N-(4-(2-((4-fluorobenzyl)amino)-2-oxoethyl)phenyl)benzamide] | – | – |
| 34.9 µM | 30.6 µM | O=C(Cc1ccc(NC(=O)c2ccccc2-c2ccccc2C(=O)N2CCOCC2)cc1)NCc1ccccc1 [KAC-06, N-(4-(2-(benzylamino)-2-oxoethyl)phenyl)-2′-(morpholine-4-carbonyl)-[1,1′-biphenyl]-2-carboxamide] | > 50 µM | – |
| – | – | O=C(Cc1ccc(-c2ccc(OCCN3CCOCC3)cc2)cn1)NCc1ccccc1 [KX-01] | – | cell cycle effect [5]: induced significant G2M phase arrest |
| – | – | CC(=O)O[C@H]1C(=O)[C@@]2(C)[C@H]([C@H](OC(=O)c3ccccc3)[C@]3(O)C[C@H](OC(=O)[C@H](O)[C@@H](NC(=O)c4ccccc4)c4ccccc4)C(C)=C1C3(C)C)[C@]1(OC(C)=O)CO[C@@H]1C[C@@H]2O [Paclitaxel, reference compound] | – | cell cycle effect [4]: no significant difference in the other cell cycle phases; apoptosis [4]: 7.7% |
| – | > 50 µM | Nc1ccc(CC(=O)NCc2ccccc2)cc1 [KAC-14, 2-(4-aminophenyl)-N-benzylacetamide] | > 50 µM | IC50 [6]: > 50 µM; IC50 HCT116 ([3]; 27 h): did not affect any of the tested cell lines |
| – | – | Cc1ccc(NC(=O)c2ccc(CN3CCN(C)CC3)cc2)cc1Nc1nccc(-c2cccnc2)n1 [imatinib, reference compound] | – | cell cycle effect [4]: no significant difference in the other cell cycle phases; apoptosis [4]: 6.4% |
| 44.2 µM | > 50 µM | O=C(Cc1ccc(NC(=O)c2ccccc2-c2ccccc2C(=O)N2CCCCC2)cc1)NCc1ccccc1 [KAC-05, N-(4-(2-(benzylamino)-2-oxoethyl)phenyl)-2′-(piperidine-1-carbonyl)-[1,1′-biphenyl]-2-carboxamide] | – | – |
| – | 22.7 µM | Cc1ccc(S(=O)(=O)Nc2ccc(CC(=O)NCc3ccccc3)cc2)cc1 [KAC-10, N-benzyl-2-(4-((4-methylphenyl)sulfonamido)phenyl)acetamide] | – | – |
